Holding throughout (format): cell-based, mouse
Assay [1] relates to C2C12 cells. In words: Expression of myodifferentiation-related factors (real-time PCR, Western blot, immunocytochemistry). As to the method: After adding 1 ml of TRIzol™ reagent, the cells were crushed using a sonicator. After centrifugation of the crushed sample (12,000 rpm, 10 min, 4° C.), the supernatant was transferred to a new tube, added with 200 μl of chloroform, and left at room temperature for 10 minutes. After 10 minutes, centrifugation (12,000 rpm, 10 min, 4° C.) was performed, yielded a transparent supernatant. Next, 500 μl of isopropanol was added, the mixture was left for 10 minutes, and centrifugation was performed to obtain RNA pellets. After washing by adding 70% ethanol (distilled water treated with ethanol+diethylpyrocarbonate (hereinafter referred to as DEPC)) to the RNA pellets, complete removal and drying were followed. The dried transparent RNA was added with DEPC-treated distilled water and then stored at −80° C. Total RNA volume was measured by nanodrop, and the 18s and 28s bands were detected in 1.2% agarose gel. cDNA was synthesized with 2 μg of total RNA, random hexamer primers, and reverse transcriptase (25° C.: 10 min, 37° C.: 120 min, 85° C.: 5 min).
Real-time PCR (RT-PCR) was performed for detecting gene expression. For observation of real-time gene expression, gene expression was analyzed using the Power SYBR Green PCR Master Mix, which includes fluorescent materials of SYBR green (7500 Real-time PCR system). The PCR primer was designed with Primer 3 software (http://frodo.wi.mit.edu) according to the nucleotide sequence secured from NCBI GenBank. PCR was performed 40 times at 95° C. for 10 minutes, again at 95° C. for 33 seconds, at gene primer temperature (tm) for 33 seconds, and at 72° C. for 33 seconds. Gene expression values were analyzed through the analysis of c(t) values obtained through real-time PCR analysis (fold change 2-ΔΔCt formula). Setting the gene expression value of the untreated cells to 1, the gene expression value of the treated cells was calculated. In the analysis of gene c(t) values, normalization was conducted with the glyceraldehyde-3-phosphate dehydrogenase (GAPDH).
The medium of cultured C2C12 cells was removed and washed once with PBS. The washed cells were treated with 4% formaldehyde (Sigma), fixed for 15 minutes, then washed using PBS, added with 0.2% trypton X-100 (Sigma), and left for 5 minutes. After washing again using PBS, adding 1% normal goat serum, and leaving for 30 minutes, the primary antibody (MYOD, myogenin (MYOG): myosin light chain (MYL2); 1:50) was added to carry out a reaction at 4° C. for 14 hours. The antibodies were removed, washing was performed 3 times with PBS for 10 minutes, and then the cells were left with secondary antibody (Alexa Fluor 488 goat anti-Mouse & rabbit SFX kit t) for 1 hour. After 1 hour, the antibodies were removed, washing was performed with PBS for 10 minutes, the nuclei were stained with 4′,6-diamidino-2-phenylindol (DAPI), and the expression of the proteins was observed using fluorescence microscopy.
(1) The medium of cultured C2C12 cells was removed, followed by washing with PBS. After adding LIPA buffer and protease inhibitor to the washed cells, the proteins included in the supernatant were collected after centrifugation for 10 minutes at 12000 rpm. 40 μg of the extracted proteins were subjected to electrophoresis in 8 to 10% acrylamide gel and then transferred to a polyvinylidene fluoride (PVDF) membrane (Milipore). These were blocked with 3% skim milk or bovine serum albumin (BSA) at room temperature for 1 hour. Afterwards, primary antibody diluted in 1% skim milk or BSA (Pax7; 1:500, MYOD; 1:500, MYOG; 1:400, MYL2; 1:1000, MYH; 1:500, MSTN; 1:1000, β-actin; 1:1000, MuRF1; 1:400, and Atrogin; 1:1:400) was added and reacted at 4° C. for over 16 hours. After 16 hours, cells were washed three times with TBST (Tris-buffered saline with Tween 20) and reacted with secondary antibody with horseradish peroxidase (HRP) conjugated at room temperature for 1 hour. […]

Assay [2] has as its system 3T3L1 cells. The experiment in a line: Adipodifferentiation of 3T3L1 cells (Oil Red O staining). The settings on record: 3T3L1, adipocyte differentiation medium, 4 days, FIG. 13B. The protocol:
For differentiation of 3T3L1 cells into adipocytes, when the cells grew about 100% or more, they were replaced with differentiation medium (DMEM+10% FBS+1% P/S+10 μg/ml insulin+1 μM dexametazone+0.5 μM IBMX (3-isobutyl-1-methylxanthine)) and cultured for 2 days. After 2 days, MIF peptide was treated in a medium including 10 μg/ml insulin to induce cell differentiation.
3T3L1 cells were treated with peptides and differentiated for 4 days, then the medium was removed, and the cells were washed with normal saline, treated with 10% formaldehyde, and left for 10 minutes. After 10 minutes, Oil-red O staining agents (6 ([…] Oil-red O reagent+1 ml 100% isopropanol): 4 (distilled water)) were treated and left for 1 hour. After 1 hour, cells were washed with normal saline and then observed under a microscope. To measure the Oil-red O stained in the intracellularly differentiated cells, 100% isopropanol was added and collected, followed by measurement at 510 nm.

Assay [3] deals with C2C12 cells. In words: Scratch experiment, degree of cell recovery. The conditions noted are these: C2C12 100% grown, 1000 nM peptide, 1 day. The protocol:
When the C2C12 cells were 100% grown, cells were scratches on the surface, treated with 1000 nM MIF2 or Ac-MIF2-NH2 peptides, and cultured for 1 day, followed by observation for a degree of cell recovery.

Where [4] appears, read: C2C12 differentiation, versus control.
The mark [5] stands for this setting: C2C12 myodifferentiation, FIG. 8.

Results on 1 substance are retold here after patent US20250082720A1, “NEW PEPTIDE AND USES THEREOF” (Neo Cremar Co., Ltd., priority 2021, published 2025).

As to “Ac-VDFEAGDWFW-NH2 [Ac-MIF2-NH2, MIF2 peptide with acetylated N-terminus and amidated C-terminus]”, in assay [1] (setting [4]), the MSTN protein expression result is reported as “reduced”; the “mRNA and protein expression of MYOD, MYOG, MYL2, and MYH” value is given as “increased”. Moreover, in assay [1] (setting [5]), the ACVRIIB protein expression result is “reduced”; the “gene expression of Atrogin1 and MuRF1” value was “reduced”. Also, the “decrease in fat accumulation (Oil-red O intensity) compared to cells without peptide treatment” value in assay [2] stood at 9%. Besides, the “increase in scratch recovery degree compared to untreated cells” value in assay [3] was 26%.
